Values joined by “and” are separate entries in the source; they are usually repeats but may differ in a detail not shown here. Equal values may be shown once.
Columns and labels:
[1] = molecular target: T1, purified recombinant human b5R (NADH b5 reductase) (Homo sapiens, UniProt P00387); experiment: Inhibition of recombinant b5R activity; assay type: biochemical
T1 sequence (P00387 1-301): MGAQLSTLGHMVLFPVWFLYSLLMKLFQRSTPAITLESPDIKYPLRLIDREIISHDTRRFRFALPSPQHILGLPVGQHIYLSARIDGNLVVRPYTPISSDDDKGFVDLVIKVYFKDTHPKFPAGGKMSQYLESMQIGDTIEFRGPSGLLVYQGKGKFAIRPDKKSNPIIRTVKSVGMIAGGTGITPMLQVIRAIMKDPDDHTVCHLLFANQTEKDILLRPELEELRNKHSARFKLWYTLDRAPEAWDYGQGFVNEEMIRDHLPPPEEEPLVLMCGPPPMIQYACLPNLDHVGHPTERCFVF

[2] = molecular target: T2, b5R activity in human liver microsomes (Homo sapiens, UniProt P00387); experiment: Inhibition of b5R activity in HLMs; assay type: biochemical
T2 sequence (P00387 1-301): T1 sequence (P00387 1-301)

[3] = tested on: CPR activity in rat liver microsomes; conditions: concentrations up to 10 mM, ref Lee and Kariya, 1986; cited from earlier work
[4] = tested on: b5R activity in rat liver microsomes; conditions: concentrations up to 10 mM, ref Lee and Kariya, 1986; cited from earlier work
[5] = molecular target: T3, CPR activity in human liver microsomes (Homo sapiens, UniProt P16435); experiment: Inhibition of CPR activity in HLMs
T3 sequence (P16435 1-677): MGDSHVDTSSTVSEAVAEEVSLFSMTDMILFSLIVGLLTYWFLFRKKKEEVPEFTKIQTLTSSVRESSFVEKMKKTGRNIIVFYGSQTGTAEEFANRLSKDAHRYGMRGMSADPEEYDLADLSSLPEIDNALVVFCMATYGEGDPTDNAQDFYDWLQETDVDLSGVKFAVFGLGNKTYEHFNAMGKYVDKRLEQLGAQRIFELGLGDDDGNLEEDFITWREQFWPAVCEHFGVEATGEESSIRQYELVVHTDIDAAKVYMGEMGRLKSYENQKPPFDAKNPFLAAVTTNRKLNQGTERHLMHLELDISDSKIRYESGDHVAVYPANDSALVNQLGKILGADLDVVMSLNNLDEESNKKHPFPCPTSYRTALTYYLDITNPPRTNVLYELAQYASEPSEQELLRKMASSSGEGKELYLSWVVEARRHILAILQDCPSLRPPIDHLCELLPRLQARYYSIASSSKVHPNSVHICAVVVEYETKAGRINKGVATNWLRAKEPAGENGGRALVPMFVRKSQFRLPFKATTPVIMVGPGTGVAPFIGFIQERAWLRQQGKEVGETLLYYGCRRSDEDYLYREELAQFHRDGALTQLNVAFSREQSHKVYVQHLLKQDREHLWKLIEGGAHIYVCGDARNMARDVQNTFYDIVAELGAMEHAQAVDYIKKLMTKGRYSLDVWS

[6] = molecular target: T4, purified recombinant human CPR (NADPH-cytochrome P450 reductase) (Homo sapiens, UniProt P16435); experiment: Inhibition of recombinant CPR activity; conditions: recombinant enzyme
T4 sequence (P16435 1-677): T3 sequence (P16435 1-677)

[7] = molecular target: T4, purified recombinant human CPR (NADPH-cytochrome P450 reductase); experiment: biochemical

Row | decrease in b5R activity ([1]; recombinant enzyme, 4 mM PTU, 15 min pre-incubation at 25°C) [%] | reduction in b5R activity ([2]; 4 mM PTU (highest concentration), 15 min pre-incubation at 25°C) [%] | maximal inhibition of b5R activity ([2]; over 1 to 4 mM PTU) | reduction in CPR activity ([5]; 4 mM PTU (highest concentration)) | decrease in CPR activity ([6]; 4 mM PTU) [%] | IC50 [1] [µM] | reduction in b5R activity ([1]; recombinant enzyme, 2 mM α-lipoic acid, maximal effect) [%] | reduction in b5R activity ([2]; 2 mM α-lipoic acid) [%] | IC50 [7] [µM] | reduction in CPR activity ([5]; 2 mM α-lipoic acid) [%] | reduction in CPR activity ([6]; 2 mM α-lipoic acid, maximal effect) [%] | Compound | effect on CPR activity [3] | effect on b5R activity [4]
1 | 78 | 41 | about 40% | 16% and < 20% | 51 |  |  |  |  |  |  | CCCc1cc(=O)[nH]c(=S)[nH]1 [PTU, 6-propyl-2-thiouracil] | without reducing CPR activity | selectively inhibit b5R activity
2 |  |  |  |  |  | 50 ± 50 | 84 | 54 | 140 ± 20 | 76 | 92 | O=C(O)CCCCC1CCSS1 (stereo not drawn) [α-lipoic acid] |  | 
